Data from patent US7541351B2, “Compounds for the treatment of hepatitis C” (Bristol-Myers Squibb Company, priority 2007, dated 2009).
Where two headings read alike, the source gives them in different places.

Experiments:
[1] = target: T1, HCV NS5B RdRp genotype 1b (Hepatitis C virus genotype 1b, UniProt Q9WMX2); test: Modified HCV NS5B RdRp enzyme assay (preincubation protocol); format: biochemical
T1 construct: The protein was expressed with an 18 amino acid C-terminal truncation to enhance the solubility; made in house; host or cells: E. coli BL21 (DE3)
Experimental: HCV NS5B RdRp cloning, expression, and purification. The cDNA encoding the NS5B protein of HCV, genotype 1b, was cloned into the pET21a expression vector. The protein was expressed with an 18 amino acid C-terminal truncation to enhance the solubility. The E. coli competent cell line BL21 (DE3) was used for expression of the protein. Cultures were grown at 37° C. for ˜4 hours until the cultures reached an optical density of 2.0 at 600 nm. The cultures were cooled to 20° C. and induced with 1 mM IPTG. Fresh ampicillin was added to a final concentration of 50 μg/ml and the cells were grown overnight at 20° C.
Cell pellets (3 L) were lysed for purification to yield 15-24 mgs of purified NS5B. The lysis buffer consisted of 20 mM Tris-HCl, pH 7.4, 500 mM NaCl, 0.5% triton X-100, 1 mM DTT, 1 mM EDTA, 20% glycerol, 0.5 mg/ml lysozyme, 10 mM MgCl2, 15 ug/ml deoxyribonuclease I, and Complete TM protease inhibitor tablets (Roche). After addition of the lysis buffer, frozen cell pellets were resuspended using a tissue homogenizer. To reduce the viscosity of the sample, aliquots of the lysate were sonicated on ice using a microtip attached to a Branson sonicator. The sonicated lysate was centrifuged at 100,000×g for 1 hr at 4° C. and filtered through a 0.2 μm filter unit (Corning).
The protein was purified using three sequential chromatography steps: Heparin sepharose CL-6B, polyU sepharose 4B, and Hitrap SP sepharose (Pharmacia). The chromatography buffers were identical to the lysis buffer but contained no lysozyme, deoxyribonuclease I, MgCl2 or protease inhibitor and the NaCl concentration of the buffer was adjusted according to the requirements for charging the protein onto the column. Each column was eluted with a NaCl gradient which varied in length from 5-50 column volumes depending on the column type. After the final chromatography step, the resulting purity of the enzyme is >90% based on SDS-PAGE analysis. The enzyme was aliquoted and stored at −80° C.
Standard HCV NS5B RdRp enzyme assay. HCV RdRp genotype 1b assays were run in a final volume of 60 μl in 96 well plates (Costar 3912). The assay buffer is composed of 20 mM Hepes, pH 7.5, 2.5 mM KCl, 2.5 mM MgCl2, 1 mM DTT, 1.6 U RNAse inhibitor (Promega N2515), 0.1 mg/ml BSA (Promega R3961), and 2% glycerol. All compounds were serially diluted (3-fold) in DMSO and diluted further in water such that the final concentration of DMSO in the assay was 2%. HCV RdRp genotype 1b enzyme was used at a final concentration of 28 nM. A polyA template was used at 6 nM, and a biotinylated oligo-dT 12 primer was used at 180 nM final concentration. Template was obtained commercially (Amersham 27-4110). Biotinylated primer was prepared by Sigma Genosys. 3H-UTP was used at 0.6 μCi (0.29 μM total UTP). Reactions were initiated by the addition of enzyme, incubated at 30° C. for 60 min, and stopped by adding 25 μl of 50 mM EDTA containing SPA beads (4 μg/μl, Amersham RPNQ 0007). Plates were read on a Packard Top Count NXT after >1 hr incubation at room temperature.
Modified HCV NS5B RdRp enzyme assay. A modified enzyme assay was performed essentially as described for the standard enzyme assay except for the following: The biotinylated oligo dT12 primer was precaptured on streptavidin-coated SPA beads by mixing primer and beads in assay buffer and incubating at room temperature for one hour. Unbound primer was removed after centrifugation. The primer-bound beads were resuspended in 20 mM Hepes buffer, pH 7.5 and used in the assay at final concentrations of 20 nM primer and 0.67 μg/μl beads. Order of addition in the assay: enzyme (14 nM) was added to diluted compound followed by the addition of a mixture of template (0.2 nM), 3H-UTP (0.6 μCi, 0.29 μM), and primer-bound beads, to initiate the reaction; concentrations given are final. Reactions were allowed to proceed for 4 hours at 30° C.
IC50 values for compounds were determined using seven different [I]. […]

[2] = tested on: HCV replicon cells; test: HCV replicon FRET assay; format: cell-based
Excerpt: FRET Assay Preparation. To perform the HCV FRET screening assay, 96-well cell culture plates were used. The FRET peptide (Anaspec, Inc.) (Taliani et al., Anal. Biochem. 1996, 240, 60-67) contains a fluorescence donor, EDANS, near one end of the peptide and an acceptor, DABCYL, near the other end. The fluorescence of the peptide is quenched by […] resonance energy transfer (RET) between the donor and the acceptor, but as the NS3 protease cleaves the peptide the products are released from RET quenching and the fluorescence of the donor becomes apparent. The assay reagent was made as follows: 5× cell Luciferase cell culture lysis reagent from Promega (#E153A) diluted to 1× with dH2O, NaCl added to 150 mM final, the FRET peptide diluted to 20 μM final from a 2 mM stock.
To prepare plates, HCV replicon cells, with or without a Renilla luciferase reporter gene, were trypsinized and placed into each well of a 96-well plate with titrated test compounds added in columns 3 through 12; columns 1 and 2 contained a control compound (HCV protease inhibitor), and the bottom row contained cells without compound. The plates were then placed in a CO2 incubator at 37° C.
Assays. Subsequent to addition of the test compounds described above (FRET Assay Preparation), at various times the plate was removed and Alamar blue solution (Trek Diagnostics, #00-100) was added per well as a measure of cellular toxicity. After reading in a Cytoflour 4000 instrument (PE Biosystems), plates were rinsed with PBS and then used for FRET assay by the addition of 30 ul of the FRET peptide assay reagent described above (FRET Assay Preparation) per well. The plate was then placed into the Cytoflour 4000 instrument which had been set to 340 excite/490 emission, automatic mode for 20 cycles and the plate read in a kinetic mode. Typically, the signal to noise using an endpoint analysis after the reads was at least three-fold. Alternatively, after Alamar blue reading, plates were rinsed with PBS, 50 ul of DMEM (high glucose) without phenol red was added and plates were then used for luciferase assay using the Promega Dual-Glo Luciferase Assay System.
Compound analysis was determined by quantification of the relative HCV replicon inhibition and the relative cytotoxicity values. To calculate cytoxicity values, the average Alamar Blue fluorescence signals from the control wells were set as 100% non-toxic. The individual signals in each of the compound test wells were then divided by the average control signal and multiplied by 100% to determine […]. To calculate the HCV replicon inhibition values, an average background value was obtained from the two wells containing the highest amount of HCV protease inhibitor at the end of the assay period. These numbers were similar to those obtained from naïve Huh-7 cells.
The background numbers were then subtracted from the average signal obtained from the control wells and this number was used as 100% activity. The individual signals in each of the compound test wells were then divided by the averaged control values after background subtraction and multiplied by 100% to determine percent activity. EC50 values for a protease inhibitor titration were calculated as the concentration which caused a 50% reduction in FRET or luciferase activity. The two numbers generated for the compound plate, percent cytoxicity and percent activity were used to determine compounds of interest for further analysis.

T1 sequence (Q9WMX2 2420-2992): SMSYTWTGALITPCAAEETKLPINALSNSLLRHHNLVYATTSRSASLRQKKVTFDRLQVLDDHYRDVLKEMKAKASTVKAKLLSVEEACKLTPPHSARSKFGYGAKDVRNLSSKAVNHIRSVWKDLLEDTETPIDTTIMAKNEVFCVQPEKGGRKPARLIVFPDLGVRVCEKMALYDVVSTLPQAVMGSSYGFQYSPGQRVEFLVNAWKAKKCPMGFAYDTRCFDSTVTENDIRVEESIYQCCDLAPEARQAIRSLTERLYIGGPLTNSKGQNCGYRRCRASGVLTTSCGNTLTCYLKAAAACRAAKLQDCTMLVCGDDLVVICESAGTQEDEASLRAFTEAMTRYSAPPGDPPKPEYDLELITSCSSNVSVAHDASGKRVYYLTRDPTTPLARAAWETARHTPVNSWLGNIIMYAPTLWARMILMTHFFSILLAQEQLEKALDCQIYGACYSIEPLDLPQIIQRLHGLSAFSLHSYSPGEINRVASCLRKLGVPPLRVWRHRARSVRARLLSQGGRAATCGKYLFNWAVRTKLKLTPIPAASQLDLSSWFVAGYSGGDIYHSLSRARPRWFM

Which IC50 [1] does the source give for `COc1ccc2c(c1)C=C(C(=O)N1C3CCC1CN(C)C3)Cn1c-2c(C2CCCCC2)c2ccc(C(=O)NS(=O)(=O)C(C)C)cc21` here?
Its IC50 is 1 to 500 nM.

And the EC50 ([2]; Hepatitis C virus)?
The EC50 was 1 to 500 nM.

For `COc1ccc2c(c1)C=C(C(=O)N1CC3CCC(C1)N3)Cn1c-2c(C2CCCCC2)c2ccc(C(=O)NS(=O)(=O)N(C)C)cc21`, which IC50 [1] is on record?
Its IC50 is 1 to 500 nM.

What about the EC50 ([2]; Hepatitis C virus) of the same molecule?
The EC50 was 1 to 500 nM.

For `COc1ccc2c(c1)C=C(C(=O)N1CC3CCC(C1)N3C(=O)OC(C)(C)C)Cn1c-2c(C2CCCCC2)c2ccc(C(=O)NS(=O)(=O)N(C)C)cc21`, which IC50 [1] is on record?
The IC50 was 1 to 500 nM.

What about the EC50 ([2]; Hepatitis C virus) of the same molecule?
The EC50 was 1 to 500 nM.

How did the IC50 [1] turn out when `COc1cccc2c1C=C(C(=O)N1CC3CCC(C1)N3C)Cn1c-2c(C2CCCCC2)c2ccc(C(=O)NS(=O)(=O)N(C)C)cc21` was run?
The IC50 was 1 to 500 nM.

What about the EC50 ([2]; Hepatitis C virus) of the same molecule?
Its EC50 is 1 to 500 nM.

Which IC50 [1] does the source give for `COc1ccc2c(c1)C=C(C(=O)N1C3CCC1CN(C)C3)Cn1c-2c(C2CCCCC2)c2ccc(C(=O)NS(=O)(=O)C3CC3)cc21` here?
Its IC50 is 1 to 500 nM.

What about the EC50 ([2]; Hepatitis C virus) of the same molecule?
Its EC50 is 1 to 500 nM.

Which results are given for `COc1ccc2c(c1)C=C(C(=O)N1CC3CCC(C1)N3C)Cn1c-2c(C2CCCCC2)c2ccc(C(=O)NS(=O)(=O)N(C)C)cc21`?
IC50 [1]: 1 to 500 nM; EC50 ([2]; Hepatitis C virus): 1 to 500 nM

For `COc1ccc2c(c1)C=C(C(=O)N1C3CCC1CN(C)C3)Cn1c-2c(C2CCCCC2)c2ccc(C(=O)NS(=O)(=O)N(C)C)cc21` [drawing 16], which IC50 [1] is on record?
Its IC50 is 1 to 500 nM.

And the EC50 [2]?
The EC50 was 1 to 500 nM.

Which IC50 [1] does the source give for `COc1cccc2c1C=C(C(=O)N1CC3CCC(C1)N3C(=O)OC(C)(C)C)Cn1c-2c(C2CCCCC2)c2ccc(C(=O)NS(=O)(=O)N(C)C)cc21` here?
Its IC50 is 1 to 500 nM.

And the EC50 ([2]; Hepatitis C virus)?
The EC50 was 1 to 500 nM.

Which IC50 [1] does the source give for `COc1ccc2c(c1)C=C(C(=O)N1C3CCC1CN(C)C3)Cn1c-2c(C2CCCCC2)c2ccc(C(=O)O)cc21` here?
Its IC50 is 1 to 500 nM.

What about the EC50 ([2]; Hepatitis C virus) of the same molecule?
The EC50 was 1 to 500 nM.

Which IC50 [1] does the source give for `COC(=O)c1ccc2c(C3CCCCC3)c3n(c2c1)CC(C(=O)N1C2CCC1CN(C)C2)=Cc1cc(OC)ccc1-3` here?
Its IC50 is > 500 nM.

What about the EC50 ([2]; Hepatitis C virus) of the same molecule?
Its EC50 is > 500 nM.

For `CN1CC2CCC(C1)N2C(=O)C1=Cc2c(OC(C)(F)F)cccc2-c2c(C3CCCCC3)c3ccc(C(=O)NS(=O)(=O)N(C)C)cc3n2C1`, which IC50 [1] is on record?
Its IC50 is > 500 nM.

What about the EC50 ([2]; Hepatitis C virus) of the same molecule?
Its EC50 is > 500 nM.

With `COc1ccc2c(c1)C=C(C(=O)N1C3CCC1CN(C1CC1)C3)Cn1c-2c(C2CCCCC2)c2ccc(C(=O)NS(=O)(=O)N(C)C)cc21` as the molecule, how does the IC50 [1] read?
Its IC50 is < 20 nM.

What about the EC50 ([2]; Hepatitis C virus) of the same molecule?
The EC50 was 1 to 500 nM.

Which IC50 [1] does the source give for `COC(=O)c1ccc2c(C3CCCCC3)c3n(c2c1)CC(C(=O)N1C2CCC1CN(C)C2)=Cc1c(OC(F)(F)F)cccc1-3` here?
Its IC50 is > 500 nM.

And the EC50 ([2]; Hepatitis C virus)?
The EC50 was > 500 nM.

How did the IC50 [1] turn out when `COc1cccc2c1C=C(C(=O)N1CC3CCC(C1)N3)Cn1c-2c(C2CCCCC2)c2ccc(C(=O)NS(=O)(=O)N(C)C)cc21` was run?
The IC50 was 1 to 500 nM.

And the EC50 ([2]; Hepatitis C virus)?
Its EC50 is 1 to 500 nM.

With `COc1ccc2c(c1)C=C(C(=O)N1C3CCC1CN(C)C3)Cn1c-2c(C2CCCCC2)c2ccc(C(=O)NS(=O)(=O)N(C)C)cc21` [drawing 25] as the molecule, how does the IC50 [1] read?
Its IC50 is 1 to 500 nM.

What about the EC50 ([2]; Hepatitis C virus) of the same molecule?
Its EC50 is 1 to 500 nM.

For `CCC(C)S(=O)(=O)NC(=O)c1ccc2c(C3CCCCC3)c3n(c2c1)CC(C(=O)N1C2CCC1CN(C)C2)=Cc1cc(OC)ccc1-3` (stereo not drawn), which IC50 [1] is on record?
Its IC50 is 1 to 500 nM.

What about the EC50 ([2]; Hepatitis C virus) of the same molecule?
The EC50 was 1 to 500 nM.

For `COc1ccc2c(c1)CC(C(=O)N1C3CCC1CN(C)C3)Cn1c-2c(C2CCCCC2)c2ccc(C(=O)NS(=O)(=O)N(C)C)cc21` (stereo not drawn), which IC50 [1] is on record?
Its IC50 is 1 to 500 nM.

And the EC50 ([2]; Hepatitis C virus)?
Its EC50 is 1 to 500 nM.

How did the IC50 [1] turn out when `COc1cccc2c1C=C(C(=O)N1C3CCC1CN(C)C3)Cn1c-2c(C2CCCCC2)c2ccc(C(=O)NS(=O)(=O)N(C)C)cc21` was run?
Its IC50 is 1 to 500 nM.

What about the EC50 ([2]; Hepatitis C virus) of the same molecule?
Its EC50 is 1 to 500 nM.
